pIC50: −log10 of the molar value.

Here are results for 3 compounds from patent US20060035927A1, “Calcilytic compounds” (SmithKline Beecham Corporation, priority 1999, published 2006).

Data set [1] concerns osteopenic ovx rats. In words: Ovariectomized rat Study 2: calcilytic plus/minus 17β estradiol, histology and histomorphometry of proximal tibia. Type of data set: in vivo. The following applies: Study 2, proximal tibia, static histomorphometry, vs ovx group. On the procedure:
Animals were prepared and monitored as described above. […] Dosing continued for 5 weeks at which point the animals were sacrificed and the tibiae were collected for histological analysis. Bone samples were dehydrated through increasing concentrations of ethanol, defatted in acetone and embedded in methyl methacrylate (Polysciences, Inc., Warrington, Pa.). Longitudinal undecalcified sections (5 μm) sections of the proximal tibial were cut on a Leica microtome (S[…]); the tissue blocks had been prestained with Villanueva stain. Histomorphometric analysis was carried out using an Osteomeasure system (OsteoMetrics Incorpotated), without knowledge of group allocation. Measurements within the tibial metaphysis were restricted to a mean tissue area of approximately 8 mm^2 beginning 1 mm below the growth plate. Primary measurements included area of bone and marrow (mm^2), bone area (mm^2), perimeter of bone (mm), single and double-labelled perimeter (sL.Pm, dL.Pm, m), osteoid perimeter (O.Pm, m) and eroded perimeter (Er.P, m). […] Statistical analysis was assessed by a two sided t-test.

For data set [2] the following is noted: cited from earlier work.
The conditions of data set [3]: rats, PTH dose of 80 ug/kg, published studies; cited from earlier work.
Another data set concerns plasma PTH. In words: Ovariectomized rat Study 1: circulating PTH levels (RIA). Type of data set: in vivo. The following applies: Study 1, 5 ug/kg PTH s.c. An excerpt: (§1) Seven month old virgin Sprague Dawley female rats were subjected to bilateral ovariectomy or sham surgery and the animals then held for a period of three months to allow the development of osteopenia. At that time a single sham group (n=10) and three groups of ovariectomized (ovx) animals (n=10-14) were assigned. The ovx groups were selected such that there was no significant difference in bone mineral density (“BMD”) of the lumbar spine, proximal tibia or distal femur between groups. Groups consisted of sham and ovx controls treated with dose vehicle (20% aqueous encapsin) and ovx groups treated with either N-[(2R-Hydroxy-3-[(3-chloro-2-cyano)phenoxy-propyl]-1,1-dimethyl-2-(2-naphthyl)ethyl amine hydrochloride (“calcilytic administered”) ([…] body weight daily p.o.) or rat PTH 1-34 (5 ug/kg body weight daily s.c.).
(§2) During the study blood samples were drawn for determination of circulating PTH and osteocalcin. BMD was determined by DXA (QDR4500 Hologic, Waltham, Mass.) prior to treatment and at weeks 4 and 8. At term tibiae were removed for histological analysis. All animals received tetracycline 10 and 3 days prior to the start of dosing and calcein (10 mg/kg) 10 and 3 days prior to sacrifice.
Timed plasma samples were collected relative to administration of compound or PTH. PTH 1-34 was measured by RIA (Nichols Institute Diagnostics, San Juan Capistrano, Calif.). The concentrations of compound in the plasma were quantified by LC/MS/MS (limit of detection 10 ng/ml).

Data set [4] concerns osteopenic ovx rats. In words: Ovariectomized rat Study 1: bone mineral density by DXA. Type of data set: in vivo. The following applies: Study 1, ovx rats, 5 ug/kg daily PTH s.c., eight weeks.
Excerpt: as §1, §2

Data set [5] has as its system primary human osteoblasts. The data set can be described thus: Osteoblast cAMP production, primary human osteoblasts. Type of data set: cell-based. The following applies: compound 0.1, 1 and 10 uM, PTH 40 ng/ml positive control. The procedure: (§3) cAMP accumulation was measured in both human TF274 osteoblastic cells (derived by immortalization of human bone marrow stromal cells) see James, supra, and primary human osteoblasts derived from explants of trabecular bone as described in Beresford, Biochim. Biophys. Acta, Vol. 801, pp. 58-65 ([…]). cAMP levels in cell samples were measured using a non-radioactive protocol (Amersham kit). Alkaline phosphatase activity was determined using the standard colorimetric method as described previously in Gowen, Arth. Rheum., Vol. 31, pp. 1500-1507 (1988). N-[(2R-Hydroxy-3-[(3-chloro-2-cyano)phenoxy-propyl]-1,1-dimethyl-2-(2-naphthyl)ethyl amine hydrochloride was tested at 0.1, 1 and 10 uM. PTH 40 ng/ml was used as a positive control.

For data set [6], the system named is human TF274 osteoblastic cells. The data set can be described thus: Osteoblast cAMP production, TF274 cells. Type of data set: cell-based. The following applies: compound 0.1, 1 and 10 uM, PTH 40 ng/ml positive control. The procedure:
as §3

Data set [7] relates to osteopenic ovx rats. In words: Ovariectomized rat Study 1: dynamic histomorphometry of proximal tibia. Type of data set: in vivo.
Excerpt: as §1, §2
Bone samples were dehydrated through increasing concentrations of ethanol, defatted in acetone and embedded in methyl methacrylate (Polysciences, Inc., Warrington, Pa.). Longitudinal undecalcified sections (5 μm) sections of the proximal tibial were cut on a Leica microtome (SM2500S); the tissue blocks had been prestained with Villanueva stain. Histomorphometric analysis was carried out using an Osteomeasure system (OsteoMetrics Incorpotated), without knowledge of group allocation. Measurements within the tibial metaphysis were restricted to a mean tissue area of approximately 8 mm^2 beginning 1 mm below the growth plate. Primary measurements included area of bone and marrow (mm^2), bone area (mm^2), perimeter of bone (mm), single and double-labelled perimeter (sL.Pm, dL.Pm, m), osteoid perimeter (O.Pm, m) and eroded perimeter (Er.P, m). Derived indices included trabecular bone volume (% Tb.Ar), trabecular number (Th.N, mm^−1), trabecular thickness (Th.Th, μm), trabecular separation (Th.Sp, μm), bone formation rate, surface referent (BFR/Tb.Pm, μm^3/μm^2/year), BFR/Tb.Ar (bone area referent, %/year), BFR/B.Ar (tissue referent, %/year) and mineral apposition rate (MAR, μm/day), and percent labelled perimeter (% Lp). Statistical analysis was assessed by a two sided t-test.

The conditions of data set [8]: s.c. infusion 40 and 80 ug/kg/day over periods of 2 hours or more; cited from earlier work.
The subject of a further data set is human osteoclasts. The data set can be described thus: Human osteoclast-mediated bone resorption assay. The following applies: 24 hours, bovine cortical bone particles. Type of data set: cell-based. The procedure: The isolation of disaggregated human osteoclasts from fresh osteoclastoma tissue and the in vitro human osteoclast resorption assay were performed according to James, J. Bone Min. Res., Vol. 11, pp. 1453-1460. Briefly, human osteoclasts were seeded onto bovine cortical bone particles with compound or vehicle for 24 hours at 37° C. The culture media were then removed and the levels of the carboxy-terminal peptide of the α1 chain of human type I collagen were quantified as a biochemical readout of resorption, using a competitive binding enzyme linked immunosorbant assay (ELISA) (19) (Osteometer A/S, Rodovre, Denmark). The results are expressed as percent inhibition of resorption compared to supernatants derived from osteoclasts cultured in vehicle without inhibitor. IC50 values are determined from the resultant dose response curves.

Where [9] appears, read: clinical, 0.4 ug/kg, 30 minutes after dosing.
[10] abbreviates: Study 1, proximal tibia, vs ovx control, calcilytic 100 mmol/kg p.o. or PTH 5 ug/kg s.c. daily.

As to `C[C@]12CC[C@@H]3c4ccc(O)cc4CC[C@H]3[C@@H]1CC[C@@H]2O` [estradiol, 17β estradiol, reference compound], in the data set with osteopenic ovx rats [1], the “% trabecular area (% Tb.Ar.) / ovx-induced bone loss” value is recorded as “not significantly restored”.

“PTH: parathyroid hormone; rat PTH 1-34 s.c. in the rat studies, PTH 40 ng/ml as positive control in osteoblast assays [reference compound]”: in data set [2] (clinical studies, approximate doses of 0.4-0.8 ug/kg body weight), the bone mass entry is reported as “increased bone mass”. Besides, in [2] (setting [9]), the “circulating levels of PTH 1-34” value was “approximately 90 pmol/l” and the “increase in circulating PTH levels” value is given as “three-fold increase”. Besides, the “circulating level of PTH” value in data set [3] is given as 5,000-14,000 pg/ml. Besides, the “time of return of PTH levels to baseline after dosing” value in the data set on plasma PTH is 2 to 4 h. In the data set with plasma PTH (compared with calcilytic-dosed animals), the “PTH levels in animals given PTH” value is listed as “in the same range”. In addition, the “bone mass (BMD) in the proximal tibia” value in the data set on osteopenic ovx rats [4] is recorded as “returned to pre-ovx levels”. For the same compound, the “cAMP levels (basal)” value in [5] is reported as “two-fold increase”. Besides, in data set [6], the “cAMP levels (basal)” value is listed as “two-fold increase”. Besides, in the data set on osteopenic ovx rats [7] (Study 1, overall outcome), the “bone formation and resorption, net bone gain or loss” value is “increased both resorption and formation, but formation exceeded resorption, resulting in increased bone mass”. In the data set on osteopenic ovx rats [7] (setting [10]), the “bone formation: % labeled perimeter (% L.Pm.)” value is “elevated above the ovx control level” and the “bone formation: % osteoid perimeter (% Os.Pm)” value was “elevated above the ovx control level”. Further, the “adverse effects of prolonged PTH infusion” value in [8] was “rapid loss in body weight, hypercalcemia and histological abnormalities in the skeleton”.

With “3,1,1-bis (2-methylpropyl)-4,7,10-trioxo-2,5,6,8,9,12-hexaazatridecanedioate [reference compound]”, in the data set on human osteoclasts, the negative logarithm of the IC50 (pIC50) (in general, the IC50 on a negative log10 scale, so that one unit is a factor of ten) is 6.05.
